Legend:
COLO 205 = assay: NCI-60 anticancer screening (SRB); format: cell-based; settings: Homo sapiens; COLO 205, colon cancer; one dose 10 μM; read-out: Growth Inhibition Percentage (GI %)
MDA-MB-468 = assay: NCI-60 anticancer screening (SRB); format: cell-based; settings: Homo sapiens; MDA-MB-468, breast cancer; one dose 10 μM; read-out: Growth Inhibition Percentage (GI %)
PC-3 = assay: NCI-60 anticancer screening (SRB); format: cell-based; settings: Homo sapiens; PC-3, prostate cancer; one dose 10 μM; read-out: Growth Inhibition Percentage (GI %)
EGFR^WT = EGFR^WT (Homo sapiens, UniProt P00533); assay: EGFR kinase inhibitory assay (HTRF)
Sequence of EGFR^WT (P00533 25-1210): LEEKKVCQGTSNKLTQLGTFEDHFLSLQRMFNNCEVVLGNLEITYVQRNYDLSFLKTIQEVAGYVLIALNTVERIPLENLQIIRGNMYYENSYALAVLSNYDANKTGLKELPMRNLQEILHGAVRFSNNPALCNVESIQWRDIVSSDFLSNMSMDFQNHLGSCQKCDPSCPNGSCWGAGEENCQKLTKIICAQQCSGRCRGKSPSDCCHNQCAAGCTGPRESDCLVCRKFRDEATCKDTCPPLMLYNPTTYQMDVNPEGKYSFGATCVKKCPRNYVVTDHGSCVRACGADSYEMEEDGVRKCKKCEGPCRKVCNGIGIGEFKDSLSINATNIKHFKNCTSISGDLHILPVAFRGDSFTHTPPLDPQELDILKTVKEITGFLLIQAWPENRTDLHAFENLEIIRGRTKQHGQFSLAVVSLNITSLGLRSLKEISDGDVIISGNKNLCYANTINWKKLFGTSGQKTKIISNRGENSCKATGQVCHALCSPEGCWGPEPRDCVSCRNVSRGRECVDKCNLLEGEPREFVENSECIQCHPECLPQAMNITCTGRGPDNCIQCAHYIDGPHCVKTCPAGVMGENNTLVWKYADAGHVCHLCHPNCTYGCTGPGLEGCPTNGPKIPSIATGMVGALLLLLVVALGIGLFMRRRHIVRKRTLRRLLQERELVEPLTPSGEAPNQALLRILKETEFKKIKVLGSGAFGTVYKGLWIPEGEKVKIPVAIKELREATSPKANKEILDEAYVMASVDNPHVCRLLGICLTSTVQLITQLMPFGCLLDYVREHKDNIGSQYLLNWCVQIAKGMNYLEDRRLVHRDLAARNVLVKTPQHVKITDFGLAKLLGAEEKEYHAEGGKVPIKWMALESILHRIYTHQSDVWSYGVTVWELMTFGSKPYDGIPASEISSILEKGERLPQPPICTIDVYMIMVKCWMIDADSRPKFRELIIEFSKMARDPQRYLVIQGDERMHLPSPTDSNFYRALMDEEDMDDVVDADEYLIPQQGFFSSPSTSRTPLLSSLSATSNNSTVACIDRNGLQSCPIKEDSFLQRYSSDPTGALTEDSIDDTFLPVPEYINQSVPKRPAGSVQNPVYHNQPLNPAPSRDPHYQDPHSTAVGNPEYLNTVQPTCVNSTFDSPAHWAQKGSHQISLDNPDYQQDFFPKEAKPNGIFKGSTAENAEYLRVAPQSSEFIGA

A549/ATCC = assay: NCI-60 anticancer screening (SRB); format: cell-based; settings: Homo sapiens; A549/ATCC, NSC lung cancer; one dose 10 μM; read-out: Growth Inhibition Percentage (GI %)
NCI-H322M = assay: NCI-60 anticancer screening (SRB); format: cell-based; settings: Homo sapiens, NSC lung cancer, one dose 10 μM, read-out: Growth Inhibition Percentage (GI %)
MOLT-4 = assay: NCI-60 anticancer screening (SRB); format: cell-based; settings: Homo sapiens; MOLT-4, leukemia; one dose 10 μM; read-out: Growth Inhibition Percentage (GI %)
KM 12 = assay: NCI-60 anticancer screening (SRB); format: cell-based; settings: Homo sapiens, KM12; KM 12, colon cancer; one dose 10 μM; read-out: Growth Inhibition Percentage (GI %)
SK-MEL-28 = assay: NCI-60 anticancer screening (SRB); format: cell-based; settings: Homo sapiens; SK-MEL-28, melanoma; one dose 10 μM; read-out: Growth Inhibition Percentage (GI %)
MCF7 = assay: NCI-60 anticancer screening (SRB); format: cell-based; settings: Homo sapiens; MCF7, breast cancer; one dose 10 μM; read-out: Growth Inhibition Percentage (GI %)
OVCAR-3 = assay: NCI-60 anticancer screening (SRB); format: cell-based; settings: Homo sapiens; OVCAR-3, ovarian cancer; one dose 10 μM; read-out: Growth Inhibition Percentage (GI %)
NCI/ADR-RES = assay: NCI-60 anticancer screening (SRB); format: cell-based; settings: Homo sapiens, ovarian cancer, one dose 10 μM, read-out: Growth Inhibition Percentage (GI %)
CCRF-CEM = assay: NCI-60 anticancer screening (SRB); format: cell-based; settings: Homo sapiens, leukemia, one dose 10 μM, read-out: Growth Inhibition Percentage (GI %)
HL-60(TB) = assay: NCI-60 anticancer screening (SRB); format: cell-based; settings: Homo sapiens, leukemia, one dose 10 μM, read-out: Growth Inhibition Percentage (GI %)
SW-620 = assay: NCI-60 anticancer screening (SRB); format: cell-based; settings: Homo sapiens; SW-620, colon cancer; one dose 10 μM; read-out: Growth Inhibition Percentage (GI %)
UO-31 = assay: NCI-60 anticancer screening (SRB); format: cell-based; settings: Homo sapiens; UO-31, renal cancer; one dose 10 μM; read-out: Growth Inhibition Percentage (GI %)
EGFR^L858R = EGFR^L858R (Homo sapiens, UniProt P00533, L858R); assay: biochemical
Sequence of EGFR^L858R (P00533 25-1210 L858R): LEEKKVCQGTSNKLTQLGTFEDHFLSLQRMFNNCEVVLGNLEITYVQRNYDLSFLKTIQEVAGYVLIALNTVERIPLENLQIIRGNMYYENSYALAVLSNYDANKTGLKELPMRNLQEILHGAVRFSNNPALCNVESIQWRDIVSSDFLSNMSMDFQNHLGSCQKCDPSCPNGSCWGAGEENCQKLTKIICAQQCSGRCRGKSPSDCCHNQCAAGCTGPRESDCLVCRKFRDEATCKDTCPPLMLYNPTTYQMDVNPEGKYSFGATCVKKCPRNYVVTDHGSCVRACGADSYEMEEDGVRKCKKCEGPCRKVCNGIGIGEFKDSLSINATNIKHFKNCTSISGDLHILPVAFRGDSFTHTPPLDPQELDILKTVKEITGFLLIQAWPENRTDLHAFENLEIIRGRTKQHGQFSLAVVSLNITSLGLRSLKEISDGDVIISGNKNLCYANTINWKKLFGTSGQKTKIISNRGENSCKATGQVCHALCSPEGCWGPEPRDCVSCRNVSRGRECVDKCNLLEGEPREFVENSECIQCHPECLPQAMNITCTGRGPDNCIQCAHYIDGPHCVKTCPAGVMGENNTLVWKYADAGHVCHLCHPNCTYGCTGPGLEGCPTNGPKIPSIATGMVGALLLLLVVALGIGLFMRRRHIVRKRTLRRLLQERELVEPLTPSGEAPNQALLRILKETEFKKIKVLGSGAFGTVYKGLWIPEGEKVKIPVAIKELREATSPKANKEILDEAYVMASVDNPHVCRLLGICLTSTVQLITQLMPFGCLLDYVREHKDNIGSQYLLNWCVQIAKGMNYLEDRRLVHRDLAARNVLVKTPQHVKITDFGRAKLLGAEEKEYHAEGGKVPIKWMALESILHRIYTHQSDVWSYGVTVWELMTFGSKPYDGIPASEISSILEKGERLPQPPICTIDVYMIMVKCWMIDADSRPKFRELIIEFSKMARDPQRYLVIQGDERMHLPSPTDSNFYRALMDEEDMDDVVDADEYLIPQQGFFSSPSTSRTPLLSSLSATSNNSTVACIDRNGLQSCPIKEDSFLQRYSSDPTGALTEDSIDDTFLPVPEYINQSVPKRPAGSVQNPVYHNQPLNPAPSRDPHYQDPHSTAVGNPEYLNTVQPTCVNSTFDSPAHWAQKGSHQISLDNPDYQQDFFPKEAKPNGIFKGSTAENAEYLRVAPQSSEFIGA

HCC-2998 = assay: NCI-60 anticancer screening (SRB); format: cell-based; settings: Homo sapiens; HCC-2998, colon cancer; one dose 10 μM; read-out: Growth Inhibition Percentage (GI %)
OVCAR-4 = assay: NCI-60 anticancer screening (SRB); format: cell-based; settings: Homo sapiens; OVCAR-4, ovarian cancer; one dose 10 μM; read-out: Growth Inhibition Percentage (GI %)
RXF 393 = assay: NCI-60 anticancer screening (SRB); format: cell-based; settings: Homo sapiens; RXF 393, renal cancer; one dose 10 μM; read-out: Growth Inhibition Percentage (GI %)
BT-549 = assay: NCI-60 anticancer screening (SRB); format: cell-based; settings: Homo sapiens; BT-549, breast cancer; one dose 10 μM; read-out: Growth Inhibition Percentage (GI %)
OVCAR-8 = assay: NCI-60 anticancer screening (SRB); format: cell-based; settings: Homo sapiens; OVCAR-8, ovarian cancer; one dose 10 μM; read-out: Growth Inhibition Percentage (GI %)
TK-10 = assay: NCI-60 anticancer screening (SRB); format: cell-based; settings: Homo sapiens; TK-10, renal cancer; one dose 10 μM; read-out: Growth Inhibition Percentage (GI %)
EGFR^T790M = EGFR^T790M (Homo sapiens, UniProt P00533, T790M); assay: biochemical
Sequence of EGFR^T790M (P00533 25-1210 T790M): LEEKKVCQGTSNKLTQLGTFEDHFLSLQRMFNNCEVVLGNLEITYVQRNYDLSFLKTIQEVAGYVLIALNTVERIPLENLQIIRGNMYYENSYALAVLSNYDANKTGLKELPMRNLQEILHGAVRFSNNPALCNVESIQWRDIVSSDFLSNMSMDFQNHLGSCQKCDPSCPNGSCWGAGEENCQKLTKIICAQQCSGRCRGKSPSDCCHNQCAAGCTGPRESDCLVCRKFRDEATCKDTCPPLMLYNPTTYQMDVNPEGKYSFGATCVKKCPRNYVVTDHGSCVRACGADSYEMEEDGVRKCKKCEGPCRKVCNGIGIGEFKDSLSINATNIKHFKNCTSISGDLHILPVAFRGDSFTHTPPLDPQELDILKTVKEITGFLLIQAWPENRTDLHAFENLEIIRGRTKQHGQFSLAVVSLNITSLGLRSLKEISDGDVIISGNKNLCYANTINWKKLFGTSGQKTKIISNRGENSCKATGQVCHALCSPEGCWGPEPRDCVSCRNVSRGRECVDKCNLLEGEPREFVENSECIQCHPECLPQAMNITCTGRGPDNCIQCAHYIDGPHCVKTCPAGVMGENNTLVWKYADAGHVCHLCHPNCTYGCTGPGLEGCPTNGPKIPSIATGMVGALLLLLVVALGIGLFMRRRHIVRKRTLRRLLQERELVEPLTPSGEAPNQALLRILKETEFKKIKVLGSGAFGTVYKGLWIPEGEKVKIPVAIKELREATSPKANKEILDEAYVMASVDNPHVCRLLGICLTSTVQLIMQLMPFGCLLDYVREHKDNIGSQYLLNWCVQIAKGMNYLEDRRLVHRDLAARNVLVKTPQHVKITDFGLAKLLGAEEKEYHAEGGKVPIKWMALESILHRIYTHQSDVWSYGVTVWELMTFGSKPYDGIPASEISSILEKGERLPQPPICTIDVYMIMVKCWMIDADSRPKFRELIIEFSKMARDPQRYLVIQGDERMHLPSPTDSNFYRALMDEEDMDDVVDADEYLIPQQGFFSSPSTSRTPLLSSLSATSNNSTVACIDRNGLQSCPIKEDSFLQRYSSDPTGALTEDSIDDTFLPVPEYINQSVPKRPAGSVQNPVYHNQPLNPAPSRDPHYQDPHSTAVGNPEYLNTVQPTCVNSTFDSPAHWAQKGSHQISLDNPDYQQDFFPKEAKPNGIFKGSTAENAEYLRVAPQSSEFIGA

HCT-15 = assay: NCI-60 anticancer screening (SRB); format: cell-based; settings: Homo sapiens; HCT-15, colon cancer; one dose 10 μM; read-out: Growth Inhibition Percentage (GI %)
HS 578T = assay: NCI-60 anticancer screening (SRB); format: cell-based; settings: Homo sapiens; HS 578T, breast cancer; one dose 10 μM; read-out: Growth Inhibition Percentage (GI %)
SK-OV-3 = assay: NCI-60 anticancer screening (SRB); format: cell-based; settings: Homo sapiens; SK-OV-3, ovarian cancer; one dose 10 μM; read-out: Growth Inhibition Percentage (GI %)
NCI 60 cancer cell lines = assay: NCI-60 anticancer screening (SRB), whole panel; format: cell-based, human; settings: mean across the NCI-60 panel; one dose 10 μM
MDA-MB-231 = assay: NCI-60 anticancer screening (SRB); format: cell-based; settings: Homo sapiens; MDA-MB-231, breast cancer; one dose 10 μM; read-out: Growth Inhibition Percentage (GI %)
MDA-MB-435 = assay: NCI-60 anticancer screening (SRB); format: cell-based; settings: Homo sapiens; MDA-MB-435, melanoma; one dose 10 μM; read-out: Growth Inhibition Percentage (GI %)
UACC-62 = assay: NCI-60 anticancer screening (SRB); format: cell-based; settings: Homo sapiens; UACC-62, melanoma; one dose 10 μM; read-out: Growth Inhibition Percentage (GI %)

SMILES	inhibition at 10 µM (COLO 205) [%]	inhibition at 10 µM (MDA-MB-468) [%]	inhibition at 10 µM (PC-3) [%]	IC50 (EGFR^WT) [nM]	inhibition at 10 µM (A549/ATCC) [%]	inhibition at 10 µM (NCI-H322M) [%]	inhibition at 10 µM (MOLT-4) [%]	inhibition at 10 µM (KM 12) [%]	inhibition at 10 µM (SK-MEL-28) [%]	inhibition at 10 µM (MCF7) [%]	inhibition at 10 µM (OVCAR-3) [%]	inhibition at 10 µM (NCI/ADR-RES) [%]	inhibition at 10 µM (CCRF-CEM) [%]	inhibition at 10 µM (HL-60(TB)) [%]	inhibition at 10 µM (SW-620) [%]	inhibition at 10 µM (UO-31) [%]	IC50 (EGFR^L858R) [nM]	inhibition at 10 µM (HCC-2998) [%]	inhibition at 10 µM (OVCAR-4) [%]	inhibition at 10 µM (RXF 393) [%]	other results
CCOC(=O)C1=C(N)N(c2ccc(Cl)cc2)C2=C(C(=O)CC(C)(C)C2)C1c1ccc(F)cc1 (racemic) [8b, (±)-Ethyl 2-amino-1–(4-chlorophenyl)-4–(4-fluoroyphenyl)-7,7-dimethyl-5-oxo-1,4,5,6,7,8-hexahydroquinoline-3-carboxylate]	13	17	35	186 ± 100	12	< 10	< 10	< 10	< 10	25	< 10	12	26	32	< 10	30	770 ± 6	< 10	16	17	inhibition at 10 µM (BT-549): 13%; inhibition at 10 µM (OVCAR-8): 13%; inhibition at 10 µM (TK-10): < 10%; IC50 (EGFR^T790M): 650 ± 4 nM; inhibition at 10 µM (HCT-15): 34%; inhibition at 10 µM (HS 578T): < 10%; inhibition at 10 µM (SK-OV-3): < 10%; GI % mean (NCI 60 cancer cell lines): 14%; inhibition at 10 µM (MDA-MB-231): 19%; inhibition at 10 µM (MDA-MB-435): 11%; inhibition at 10 µM (UACC-62): 40%
CCOC(=O)C1=C(N)N(c2ccc(Cl)cc2)C2=C(C(=O)CC(C)(C)C2)C1c1ccc(Cl)cc1 (racemic) [8e, (±)-Ethyl 2-amino-1,4-bis (4-chlorophenyl)-7,7-dimethyl-5-oxo-1,4,5,6,7,8-hexahydroquinoline-3-carboxylate]	53	33	58	300 ± 120	62	< 10	89	38	26	56	16	32	61	62	33	34	351 ± 2	11	54	35	inhibition at 10 µM (BT-549): 21%; inhibition at 10 µM (OVCAR-8): 30%; inhibition at 10 µM (TK-10): 11%; IC50 (EGFR^T790M): 693 ± 5 nM; inhibition at 10 µM (HCT-15): 58%; inhibition at 10 µM (HS 578T): 44%; inhibition at 10 µM (SK-OV-3): < 10%; GI % mean (NCI 60 cancer cell lines): 32%; inhibition at 10 µM (MDA-MB-231): 24%; inhibition at 10 µM (MDA-MB-435): 54%; inhibition at 10 µM (UACC-62): 28%
CCOC(=O)C1=C(N)N(c2ccccc2)C2=C(C(=O)CC(C)(C)C2)C1c1ccccc1Br (racemic) [6d, (±)-Ethyl 2-amino-4–(2-bromophenyl)-7,7-dimethyl-5-oxo-1-phenyl-1,4,5,6,7,8-hexahydroquinoline-3-carboxylate]	< 10	30	33	99 ± 20	13	< 10	25	< 10	< 10	33	< 10	< 10	20	34	< 10	14	250 ± 5	< 10	12	< 10	inhibition at 10 µM (BT-549): < 10%; inhibition at 10 µM (OVCAR-8): < 10%; inhibition at 10 µM (TK-10): < 10%; IC50 (EGFR^T790M): 410 ± 2 nM; inhibition at 10 µM (HCT-15): 17%; inhibition at 10 µM (HS 578T): < 10%; inhibition at 10 µM (SK-OV-3): < 10%; GI % mean (NCI 60 cancer cell lines): 12%; inhibition at 10 µM (MDA-MB-231): < 10%; inhibition at 10 µM (MDA-MB-435): < 10%; inhibition at 10 µM (UACC-62): 36%

Source: paper PMC10408569, “Recruitment of hexahydroquinoline as anticancer scaffold targeting inhibition of wild and mutants EGFR (EGFR^WT, EGFR^T790M, and EGFR^L858R)” (Journal of Enzyme Inhibition and Medicinal Chemistry, 2023)
